The record followed here is PubChem BioAssay (NCI).

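48-hour exposure; five concentrations; linearly interpolated endpoints. At the GI50, growth is halved. Definition used: TGI = concentration required for complete inhibition of growth.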

Holding throughout (assay): NCI-60 cell line screen, 48 h
Assay [1] deals with TK-10 renal.
The test system of assay [2] is HCT-15 colon.
In assay [3] the test system is UACC-257 melanoma.
Assay [4] has as its system HOP-92 NSCLC.
Assay [5] deals with LOX IMVI melanoma.
The subject of assay [6] is UO-31 renal.
Assay [7] relates to MOLT-4 leukemia.
For assay [8], the system named is MDA-MB-231 breast.
In assay [9] the test system is DU-145 prostate.
For assay [10], the system named is OVCAR-4 ovarian.

`COc1cc2nc(N3CCCC3)nc(NCc3ccccc3)c2cc1OC`: the GI50 in assay [1] is 1.9 µM; in assay [2], 1.79 µM; in assay [3], 1.96 µM; in assay [4], 2.36 µM; in [5], 1.71 µM; in [6], 1.38 µM. Also, the GI50 in assay [7] was 2.89 µM; in [8] it was 2.1 µM; in [9] it was 4.62 µM; in assay [10], 2.95 µM. The TGI turned out to be 3.71 µM in [1]; 4.22 µM in assay [2]; 4.04 µM in [3]; 14 µM in assay [4]; 3.36 µM in [5]; 3.21 µM in assay [6]. The TGI in assay [7] amounted to 9.1 µM; in [8] it was 4.48 µM; in assay [9] it was 16.5 µM; in assay [10], 11.3 µM.

On to `COc1ccc(CCN2CC=Cn3c2nc2ccccc2c3=O)cc1`, for which the GI50 is 40 µM in [1]; 0.0185 µM in assay [2]; 20.5 µM in assay [3]; 0.127 µM in assay [4]; 0.0585 µM in [5]; 0.0683 µM in [6]. The GI50 was 0.0523 µM in [7], 0.0558 µM in [8], 0.0374 µM in assay [9] and 0.0637 µM in assay [10]. In addition, the TGI in assay [1] is above 100 µM; in [2], above 45.7 µM; in [3], above 100 µM; in assay [4] it was 29.5 µM; in assay [5], above 40.1 µM; in assay [6], above 100 µM. The TGI in assay [7] is above 100 µM; in [8], above 100 µM; in [9], above 23.3 µM; in [10], above 96 µM.

`CSC1=C(N)C(=O)c2[nH]cc(CO)c2C1=N`: the GI50 was 1.37 µM in [1]; 0.163 µM in [2]; 0.134 µM in assay [3]; 0.499 µM in assay [4]; 0.134 µM in assay [5]; 0.154 µM in [6]. Besides, the GI50 in assay [7] is 0.204 µM; in [8] it was 0.236 µM; in [9] it was 0.166 µM; in assay [10], 0.123 µM. The TGI in assay [1] was 2.72 µM; in assay [2] it was 0.382 µM; in assay [3], 0.267 µM; in [4], 2.3 µM; in assay [5], 0.283 µM; in assay [6] it was 0.295 µM. Further, the TGI turned out to be 0.475 µM in assay [7], 0.669 µM in assay [8], 0.308 µM in [9] and 0.249 µM in assay [10].

As to `O=c1cnn(C2OC(CO)C(O)C2O)c(=S)[nH]1` (centres undefined), the TGI in assay [1] was above 100 µM; in assay [2] it was above 100 µM; in [3], above 100 µM; in assay [4], above 100 µM; in [5], above 68.5 µM; in [6] it was above 100 µM. The TGI in [7] was above 30.7 µM; in [8], above 100 µM; in assay [9], above 100 µM; in [10] it was above 100 µM.

Regarding `CC1=C(c2cccc(O)c2)[C@H](c2ccc(OCCN3CC(CF)C3)cc2)Oc2ccc(O)cc21`, the GI50 in [1] was 12 µM; in [2], 6.09 µM; in [3] it was 4.98 µM; in assay [4], 2.52 µM; in assay [5] it was 2.23 µM; in assay [6], 3.56 µM. In addition, the GI50 in [7] is 3.59 µM; in assay [8] it was 4.87 µM; in assay [9], 4.18 µM; in assay [10], 9.62 µM. Further, the TGI in assay [1] is 25.1 µM; in [2], 19.6 µM; in assay [3], 18.2 µM; in assay [4], 13.8 µM; in assay [5], 5.16 µM; in assay [6], 16 µM. The TGI in assay [7] turned out to be 16 µM; in assay [8] it was 17.4 µM; in assay [9], 15 µM; in assay [10], 21.7 µM.

Turning to `COC1CC(O[C@H]2CC[C@@]3(C)[C@H](CC[C@@H]4[C@@H]3CC[C@]3(C)[C@@H](C5=CC(=O)OC5)[C@@H](OC(C)=O)C[C@]43O)C2)OC(C)C1O` (some centres undefined), the GI50 in assay [1], in [2], in assay [3], in [4], in assay [5] and in assay [6] was below 0.01 µM throughout. The GI50 in assay [7], in [8], in [9] and in assay [10] was below 0.01 µM each time. Besides, the TGI in [1], in [2], in assay [3], in assay [4], in [5] and in assay [6] was below 0.01 µM throughout. The TGI was below 0.01 µM in assay [7], below 0.0155 µM in assay [8], below 0.01 µM in assay [9] and below 0.01 µM in assay [10].

On to `N#C/C(=C\c1ccsc1)c1nc2ccccc2o1`, for which the GI50 in assay [1] is 21.1 µM; in [2], above 100 µM; in assay [3], above 100 µM; in assay [4] it was 14.4 µM; in assay [5], above 100 µM; in [6] it was 46.4 µM. In addition, the GI50 in assay [7] is above 100 µM; in [8] it was 22.4 µM; in [9], 84.6 µM; in assay [10], above 100 µM. For the same molecule, the TGI in [1] is 70.5 µM; in assay [2], above 100 µM; in assay [3] it was above 100 µM; in [4], 42.8 µM; in assay [5] it was above 100 µM; in assay [6], above 100 µM. The TGI in assay [7], in assay [8], in assay [9] and in [10] was above 100 µM in each case.

For the molecule `O=C1c2cc3c(cc2[C@@H]2[C@H]1c1ccc([N+](=O)[O-])cc1C(=O)N2CCCBr)OCO3`, the GI50 in assay [1] was 0.134 µM; in [2] it was below 0.0226 µM; in assay [3], below 0.01 µM; in assay [4], below 0.01 µM; in assay [5], below 0.01 µM; in [6] it was below 0.01 µM. The GI50 in assay [7] was below 0.01 µM; in assay [8], 0.187 µM; in assay [9], below 0.01 µM; in assay [10] it was 0.0771 µM. In addition, the TGI in assay [1] was 4.04 µM; in assay [2] it was 0.656 µM; in [3], above 100 µM; in [4] it was below 0.01 µM; in assay [5] it was below 0.0117 µM; in [6] it was above 100 µM. In addition, the TGI in assay [7] was 0.0541 µM; in [8], 0.699 µM; in [10], 7 µM.

As for `C#CC#CC#CC#CC#CC#CC#CC#CCC1OCC(COC(=O)O[C@@H](C(=O)O[C@H]2C[C@@]3(O)[C@@H](OC(=O)c4ccccc4)[C@@H]4[C@]5(OC(C)=O)CO[C@@H]5C[C@H](O)[C@@]4(C)C(=O)[C@H](OC(C)=O)C(=C2C)C3(C)C)[C@@H](NC(=O)c2ccccc2)c2ccccc2)O1` (some centres undefined), the GI50 was above 16.3 µM in [1]; above 9.51 µM in assay [2]; above 8.95 µM in assay [3]; 0.0275 µM in assay [5]; above 33.3 µM in [6]; 0.212 µM in assay [7]. For the same molecule, the values for the GI50 in assay [8], in assay [9] and in assay [10] were 0.447 µM, 0.0961 µM and above 33.3 µM, respectively. Further, the TGI in assay [1], in assay [2], in assay [3], in assay [4], in [5] and in assay [6] was above 33.3 µM each time. Further, the TGI in assay [7], in [8] and in assay [10] was above 33.3 µM in each case.

Consider `COc1cc(OC)c(C/C=C/c2ccccc2)cc1O`, for which the TGI in assay [1] was 29.9 µM; in [2] it was 30.1 µM; in [3] it was 55.6 µM; in assay [4], 26.5 µM; in assay [5] it was 29.4 µM; in assay [6], 29.6 µM. For the same molecule, the TGI in [7] worked out at 40.5 µM; in [8] it was 31.7 µM; in assay [9], 31.5 µM; in assay [10] it was 33.5 µM.

Consider `COc1ccc2c(c1)NC1=C(C(=O)OC1)C2c1cc(OC)c2c(c1)OCO2` (centres undefined), for which the GI50 in [1] is 60.7 µM; in [2], 0.0319 µM; in assay [4] it was 1.36 µM; in assay [5], below 0.0189 µM; in assay [7], 0.0246 µM; in assay [8] it was 0.0342 µM. In addition, the GI50 in assay [9] was 0.0218 µM; in assay [10], 0.0257 µM. Besides, the TGI in [1] is above 100 µM; in assay [2], above 100 µM; in assay [3], above 100 µM; in [4], above 87.9 µM; in assay [5], above 100 µM; in assay [6] it was above 100 µM. Further, the TGI is above 100 µM in assay [7], above 100 µM in [8], 0.066 µM in assay [9] and above 100 µM in assay [10].

For `C/C(=N/NC(=S)N1CCCCC1)c1ccccc1O`, the TGI in assay [1], in assay [2], in assay [3], in [4], in assay [5] and in [6] was above 31.6 µM each time. Besides, the TGI is above 31.6 µM in assay [7], above 100 µM in assay [8], above 31.6 µM in [9] and above 31.6 µM in [10].

For the molecule `C=C1C(O)C2C(=C(CC)C13CC3)C(=O)C(C)(C)C2OC` (centres undefined), the GI50 in [1] is above 100 µM; in assay [2], 59 µM; in [3], 35.6 µM; in assay [4], 48.4 µM; in assay [5], 43.1 µM; in assay [6], 81.5 µM. In addition, the GI50 in assay [7] was 27.3 µM; in [8], 87.5 µM; in [9], 57.9 µM; in assay [10], above 100 µM. Further, the TGI in [1], in assay [2], in assay [3], in [4], in assay [5] and in assay [6] was above 100 µM in each case. Moreover, the TGI in assay [7], in assay [8], in assay [9] and in [10] was above 100 µM each time.

In the case of `Cc1cc(NC(=O)NC(=O)c2ccccc2NC(=O)C(C)N)ccc1Oc1ncc(Br)cn1` (centres undefined), the TGI in assay [1] stood at 39.4 µM; in [2], 39.1 µM; in assay [3], 32.6 µM; in assay [4] it was 25.6 µM; in [5], 33.5 µM; in assay [6], 26.9 µM. The TGI is 52.2 µM in [7], 11.8 µM in [8], 19.2 µM in assay [9] and 36.7 µM in [10].

`NC(=O)N/N=C1/CCC(O)CC1CC(=O)O` (centres undefined): the TGI in [1], in assay [2], in assay [3], in assay [4], in assay [5] and in assay [6] was above 100 µM in each case. Further, the TGI in assay [7], in [8], in assay [9] and in assay [10] was above 100 µM throughout.

Consider `CC(C)CCCC(C)[C@H]1CCC2[C@@H]3CCC4Cc5nc6c(nc5C[C@]4(C)C3CC[C@@]21C)CC1CC[C@@H]2C(CC[C@@]3(C)C2CC[C@@H]3C(C)CCCC(C)C)[C@@]1(C)C6` (some centres undefined), for which the TGI in [1], in assay [2], in assay [3], in [4], in assay [5] and in [6] was above 100 µM in each case. For the same molecule, the TGI in assay [7], in assay [8], in [9] and in [10] was above 100 µM in each case.

In the case of `COc1cc(C(=O)c2c(-c3ccccc3)oc3c(OC)cccc23)cc(OC)c1OC`, the GI50 is 10 µM in [1]; 0.0444 µM in [2]; 28.3 µM in assay [3]; 0.108 µM in [4]; 0.0536 µM in assay [5]; 0.119 µM in [6]. Besides, the GI50 in [7] was 0.345 µM; in assay [8], 0.203 µM; in assay [9] it was 0.125 µM. Moreover, the TGI in [1] was above 62.2 µM; in assay [2], above 100 µM; in assay [3], above 100 µM; in assay [4] it was 21.5 µM; in [5] it was above 100 µM; in assay [6] it was above 100 µM. The TGI in [7] was above 100 µM; in assay [8], 2 µM; in [9], above 65.6 µM; in assay [10] it was above 100 µM.
